{"source": "patent US7820379B2", "about": "“Process for high throughput screening of CpG-based immuno-agonist/antagonist” (Coley Pharmaceutical GmbH, priority 2000, dated 2010)", "key": {"[1]": {"test_system": "plasmacytoid DC (CD123+DC)", "experiment": "Cytokine production by plasmacytoid dendritic cells (ELISA)", "format": "cell-based, human", "settings": "purified CD123+DC; ODN 2 μM, LPS 100 ng/ml", "protocol": "Human dendritic cells (DC) have been claimed to be responsive to CpG-DNA. […] The converse was true for stimulation of monocyte-derived dendritic cells (MDDC) (FIG. 8 and unpublished data). […] IL-8 and TNF concentration was determined by enzyme-linked immunosorbent assay (ELISA). The CD123+DC response was DNA- and CpG-motif restricted. […] Due to this segregated response we analyzed TLR expression."}, "human TLR9": {"target": "T1, human TLR9 (Homo sapiens, UniProt Q9NR96, H530R/Q688R)", "T1 construct": "expressed in transfected cells", "T1 sequence (Q9NR96 26-1032 H530R/Q688R)": "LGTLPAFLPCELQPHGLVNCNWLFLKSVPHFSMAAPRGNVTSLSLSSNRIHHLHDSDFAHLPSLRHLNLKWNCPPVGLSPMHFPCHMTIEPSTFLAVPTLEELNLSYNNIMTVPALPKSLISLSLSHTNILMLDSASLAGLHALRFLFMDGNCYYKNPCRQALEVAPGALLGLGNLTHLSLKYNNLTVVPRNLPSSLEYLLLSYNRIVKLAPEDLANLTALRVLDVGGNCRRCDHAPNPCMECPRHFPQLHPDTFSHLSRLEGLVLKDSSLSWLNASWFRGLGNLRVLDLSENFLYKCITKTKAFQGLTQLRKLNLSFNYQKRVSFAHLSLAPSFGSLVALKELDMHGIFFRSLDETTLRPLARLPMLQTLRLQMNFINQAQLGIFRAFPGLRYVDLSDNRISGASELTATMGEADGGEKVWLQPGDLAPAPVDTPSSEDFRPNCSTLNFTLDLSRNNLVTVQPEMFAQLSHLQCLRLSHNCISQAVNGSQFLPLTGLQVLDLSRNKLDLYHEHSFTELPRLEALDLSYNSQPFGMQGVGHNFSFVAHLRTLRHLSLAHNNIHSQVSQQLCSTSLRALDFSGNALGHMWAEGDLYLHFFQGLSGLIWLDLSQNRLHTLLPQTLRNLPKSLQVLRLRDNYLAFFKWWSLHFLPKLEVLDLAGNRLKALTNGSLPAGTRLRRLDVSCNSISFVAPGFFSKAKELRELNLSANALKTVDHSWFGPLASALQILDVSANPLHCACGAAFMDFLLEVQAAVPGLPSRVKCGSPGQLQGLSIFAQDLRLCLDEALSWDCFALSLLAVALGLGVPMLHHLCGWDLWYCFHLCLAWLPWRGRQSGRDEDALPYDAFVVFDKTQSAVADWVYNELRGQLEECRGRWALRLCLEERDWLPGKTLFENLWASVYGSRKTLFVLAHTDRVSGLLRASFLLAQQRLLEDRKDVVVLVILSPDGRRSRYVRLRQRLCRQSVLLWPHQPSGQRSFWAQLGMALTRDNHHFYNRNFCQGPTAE", "experiment": "IL-8 production by ELISA in 293 cells transfected with human TLR9", "format": "cell-based", "settings": "293 cells transiently transfected with hTLR9 alone; 48 h; ODN 2 μM, LPS 100 ng/ml", "source_text": "Since NF-κB activation is central to the IL-1/TLR signal transduction pathway (Medzhitov R et al., Mol Cell 2:253-258 (1998); Muzio M et al., J Exp Med 187:2097-2101 (1998)), cells were transfected with hTLR9 or co-transfected with hTLR9 and a NF-κB-driven luciferase reporter construct. Human fibroblast 293 cells were transiently transfected with (FIG. 1A) hTLR9 and a six-times NF-κB-luciferase reporter plasmid (NF-κB-luc, kindly provided by Patrick Baeuerle, Munich, Germany) or (FIG. 1B) with hTLR9 alone. After stimulus with CpG-ODN (2006, 2 μM, […], SEQ ID NO:112), GpC-ODN (2006-GC, 2 μM, […], SEQ ID NO:118), LPS (100 ng/ml) or media, NF-κB activation by luciferase readout (8 h, FIG. 1A) or IL-8 production by ELISA (48 h, FIG. 1B) were monitored. Results are representative of three independent experiments. […]\nBecause stable TLR9 transfectants mirrored primary cell responsiveness to CpG-DNA (FIGS. 4 and 5), it was hypothesized that stable transfectants could potentially discern species-specific CpG-motifs through TLR9 receptors. […] Depicted are both NF-κB-driven luciferase and IL-8 production as readout. […] After lysis of the cells luciferase can be detected photometrically based on an enzymatic reaction by luciferase which creates photons. IL-8 production was monitored using enzyme-linked immunosorbent assay (ELISA). […]"}, "murine splenocytes": {"test_system": "murine splenocytes", "experiment": "IL-12 production in murine splenocytes", "format": "cell-based", "settings": "ODN titration, after 8 hours", "source_text": "By iterative examination of the flanking sequences surrounding CG dinucleotides, CpG-motifs have been identified. Paradoxically, or by twist of nature, the human optimal CpG-motif, GTCGTT (SEQ ID NO:66), is different from the murine motif, GACGTT (SEQ ID NO:129). Human peripheral blood mononuclear cells (PBMC) (FIG. 10A) and murine splenocytes (FIG. 10B) were stimulated with ODN 2006 (filled circle, […], SEQ ID NO:112), ODN 2006-GC (open circle), ODN 1668 (filled triangle, […], SEQ ID NO:84) or ODN 1668-GC (open triangle, […], SEQ ID NO:85) at indicated concentrations and IL-12 production was monitored after 8 hours. […] It should also be noted that the Kac (concentration of half-maximal activation) of murine splenocytes for 1668 was greater than human PBMC for 2006 (compare FIG. 10A to FIG. 10B)."}}}
{"substance": "lipopolysaccharide [LPS]", "values": [{"measurement": "cytokine production by CD123+DC", "setting": "[1]", "value": "not"}, {"measurement": "IL-8 production by ELISA", "setting": "human TLR9", "value": "not"}]}
{"substance": "TCGTCGTTTTGTCGTTTTGTCGTT [ODN 2006]", "values": [{"measurement": "cytokine production by CD123+DC", "setting": "[1]", "value": "produced IFN-α, TNF, GM-CSF, and IL-8"}, {"measurement": "IL-12 production", "setting": "murine splenocytes", "value": "much less effective"}, {"measurement": "IL-8 production by ELISA", "setting": "human TLR9", "value": "responded"}]}
{"substance": "TCCATGACGTTCCTGATGCT (listed as DNA, chemistry not fully specified) [ODN 1668]", "values": [{"measurement": "IL-12 production", "setting": "murine splenocytes", "value": "induced optimal IL-12"}]}
